The source of these data is patent US7772241B2, “Variolin derivatives and their use as antitumor agents” (Pharma Mar S.A., priority 2001, dated 2010).

What is called GI50 is the concentration giving 50% growth inhibition.

Read-outs that look alike come from different tables or passages of the source.

The subject of one assay is A-549. Briefly: Inhibition of cells growth by colorimetric (SRB) assay, A-549. Conditions: for GI50 / CC50: Homo sapiens, A549, 48 h. The source says: (§1) The finality of these assays is to interrupt the growth of a “in vitro” tumor cell culture by means a continued exhibition of the cells to the sample to be testing.
(§2) This form of the assay employs 96 well cell culture microplates of 9 mm diameter (Faircloth, 1988; Mosmann, 1983). Most of the cell lines are obtained from American Type Culture Collection (ATCC) derived from different human cancer types.
(§3) Cells are maintained in RPMI 1640 10% FBS, supplemented with 0.1 g/l penicillin and 0.1 g/l streptomycin sulphate and then incubated at 37° C., 5% CO2 and 98% humidity. For the experiments, cells were harvested from subconfluent cultures using trypsin and resuspended in fresh medium before plating.
(§4) Cells are seeded in 96 well microtiter plates, at 5×10^3 cells per well in aliquots of 195 μl medium, and they are allowed to attach to the plate surface by growing in drug free medium for 18 hours. Afterward, samples are added in aliquots of 5 μl in a ranging from 10 to 10^−8 μg/ml, dissolved in DMSO/EtOH/PBS (0.5:0.5:99). After 48 hours exposure, the antitumor effect are measured by the SRB methodology: cells are fixed by adding 50 μl of cold 50% (wt/vol) trichloroacetic acid (TCA) and incubating for 60 minutes at 4° C. Plates are washed with deionized water and dried. One hundred μl of SRB solution (0.4% wt/vol in 1% acetic acid) is added to each microtiter well and incubated for 10 minutes at room temperature. Unbound SRB is removed by washing with 1% acetic acid. Plates are air dried and bound stain is solubilized with Tris buffer. Optical densities are read on a automated spectrophotometric plate reader at a single wavelength of 490 nm.
(§5) The values for mean +/−SD of data from triplicate wells are calculated. Some parameters for cellular responses can be calculated: GI=growth inhibition, TGI=total growth inhibition (cytostatic effect) and LC=cell killing (cytotoxic effect).

The test system of another assay is HT-29. The experiment in a line: Inhibition of cells growth by colorimetric (SRB) assay, HT-29. Conditions: for GI50 / CC50: Homo sapiens, HT-29, 48 h.
Excerpt: as §1, §2, §3, §4, §5

Another assay concerns SK-MEL-28. The experiment in a line: Inhibition of cells growth by colorimetric (SRB) assay, SK-MEL-28.
Excerpt: as §1, §2, §3, §4, §5

The subject of a further assay is IGROV-ET. The experiment in a line: Inhibition of cells growth by colorimetric (SRB) assay, IGROV-ET.
Excerpt: as §1, §2, §3, §4, §5

A further assay has as its system K-562. The experiment in a line: Inhibition of cells growth by colorimetric (SRB) assay, K-562.
Excerpt: as §1, §2, §3, §4, §5

For the next assay, the system named is SK-OV-3. Briefly: Inhibition of cells growth by colorimetric (SRB) assay, SK-OV-3.
Excerpt: as §1, §2, §3, §4, §5

Another assay relates to LoVo-Dox. Briefly: Inhibition of cells growth by colorimetric (SRB) assay, LoVo-Dox.
Excerpt: as §1, §2, §3, §4, §5

The next assay has as its system IGROV-1. The experiment in a line: Inhibition of cells growth by colorimetric (SRB) assay, IGROV-1.
Excerpt: as §1, §2, §3, §4, §5

For a further assay, the system named is LNCaP. The experiment in a line: Inhibition of cells growth by colorimetric (SRB) assay, LNCaP.
Excerpt: as §1, §2, §3, §4, §5

The subject of the next assay is DU-145. The experiment in a line: Inhibition of cells growth by colorimetric (SRB) assay, DU-145.
Excerpt: as §1, §2, §3, §4, §5

A further assay concerns PANC-1. The experiment in a line: Inhibition of cells growth by colorimetric (SRB) assay, PANC-1.
Excerpt: as §1, §2, §3, §4, §5

In another assay the test system is LoVo. The experiment in a line: Inhibition of cells growth by colorimetric (SRB) assay, LoVo.
Excerpt: as §1, §2, §3, §4, §5

Where [1] appears, read: read-out: GI50 A-549, SRB assay, 48 hours exposure.
[2] abbreviates: read-out: LC50 A-549, SRB assay, 48 hours exposure.
Setting [3] is: read-out: GI50 HT-29, SRB assay, 48 hours exposure.
The mark [4] stands for this setting: read-out: LC50 HT-29, SRB assay, 48 hours exposure.

In the case of `COc1ccc(CNc2nccc(-c3c4c(OCc5ccccc5)ccnc4n4c(NCc5ccc(OC)cc5)nccc34)n2)cc1` [Compound 53], the GI50 in the assay with A-549 (setting [1]) and with HT-29 (setting [3]) was 16 µM each time. In addition, the CC50 in the assay with A-549 (setting [2]) and with HT-29 (setting [4]) was 16 µM in each case. The “TGI A-549” value in the assay with A-549 (SRB assay, 48 hours exposure) is 1.60E−05. Further, the “TGI HT-29” value in the assay with HT-29 (SRB assay, 48 hours exposure) worked out at 1.60E−05.

For `CSc1nccc2c(C(C)C)c3cccnc3n12` [Compound 61], the GI50 in the assay with SK-MEL-28 (Homo sapiens, SK-MEL-28, 48 h, read-out: GI50 MEL-28, SRB assay, 48 hours exposure) was 20.2 µM; in the assay on IGROV-ET (Homo sapiens, 48 h, read-out: GI50 IGROV-ET, SRB assay, 48 hours exposure), 7.34 µM; in the assay with K-562 (Homo sapiens, K562, 48 h, read-out: GI50 K-562, SRB assay, 48 hours exposure) it was 9.79 µM; with SK-OV-3 (Homo sapiens, SK-OV-3, 48 h, read-out: GI50 SKOV-3, SRB assay, 48 hours exposure), 12.4 µM; in the assay with LoVo-Dox (Homo sapiens, 48 h, read-out: GI50 LOVO-DOX, SRB assay, 48 hours exposure), 13.7 µM; with IGROV-1 (Homo sapiens, IGROV-1, 48 h, read-out: GI50 IGROV, SRB assay, 48 hours exposure) it was 15.7 µM. The 50% growth inhibitory concentration (GI50) in the assay on A-549 (setting [1]) is 24.6 µM; with LNCaP (Homo sapiens, LNCaP, 48 h, read-out: GI50 LN-caP, SRB assay, 48 hours exposure) it was 8.7 µM; with DU-145 (Homo sapiens, DU-145, 48 h, read-out: GI50 DU-145, SRB assay, 48 hours exposure) it was 14.9 µM; in the assay on PANC-1 (Homo sapiens, PANC-1, 48 h, read-out: GI50 PANC-1, SRB assay, 48 hours exposure), 11.5 µM; with HT-29 (setting [3]), 28.9 µM; with LoVo (Homo sapiens, LoVo, 48 h, read-out: GI50 LOVO, SRB assay, 48 hours exposure), 23 µM. The CC50 in the assay on SK-MEL-28 (Homo sapiens, SK-MEL-28, 48 h, read-out: LC50 MEL-28, SRB assay, 48 hours exposure) was at least 38.9 µM; in the assay with IGROV-ET (Homo sapiens, 48 h, read-out: LC50 IGROV-ET, SRB assay, 48 hours exposure) it was at least 38.9 µM; in the assay with K-562 (Homo sapiens, K562, 48 h, read-out: LC50 K-562, SRB assay, 48 hours exposure) it was at least 38.9 µM; in the assay with SK-OV-3 (Homo sapiens, SK-OV-3, 48 h, read-out: LC50 SKOV-3, SRB assay, 48 hours exposure) it was at least 38.9 µM; with LoVo-Dox (Homo sapiens, 48 h, read-out: LC50 LOVO-DOX, SRB assay, 48 hours exposure), at least 38.9 µM; with IGROV-1 (Homo sapiens, IGROV-1, 48 h, read-out: LC50 IGROV, SRB assay, 48 hours exposure), at least 38.9 µM. Moreover, the CC50 in the assay with A-549 (setting [2]) was at least 38.9 µM; in the assay with LNCaP (Homo sapiens, LNCaP, 48 h, read-out: LC50 LN-caP, SRB assay, 48 hours exposure), 37.1 µM; in the assay with DU-145 (Homo sapiens, DU-145, 48 h, read-out: LC50 DU-145, SRB assay, 48 hours exposure), at least 38.9 µM; with PANC-1 (Homo sapiens, PANC-1, 48 h, read-out: LC50 PANC-1, SRB assay, 48 hours exposure) it was at least 38.9 µM; in the assay with HT-29 (setting [4]) it was at least 38.9 µM; with LoVo (Homo sapiens, LoVo, 48 h, read-out: LC50 LOVO, SRB assay, 48 hours exposure), at least 38.9 µM. Also, in the assay with SK-MEL-28 (SRB assay, 48 hours exposure), the “TGI MEL-28” value is on record as 3.89E−05. Further, the “TGI IGROV-ET” value with IGROV-ET (SRB assay, 48 hours exposure) is reported as 2.27E−05. In the assay on K-562 (SRB assay, 48 hours exposure), the “TGI K-562” value turned out to be 2.44E−05. For the same compound, the “TGI SKOV-3” value with SK-OV-3 (SRB assay, 48 hours exposure) is 2.96E−05. Also, the “TGI LOVO-DOX” value in the assay with LoVo-Dox (SRB assay, 48 hours exposure) is reported as 3.89E−05. Besides, the “TGI IGROV” value with IGROV-1 (SRB assay, 48 hours exposure) is given as 3.49E−05. For the same compound, in the assay with A-549 (SRB assay, 48 hours exposure), the “TGI A-549” value is listed as 3.89E−05. For the same compound, the “TGI LN-caP” value with LNCaP (SRB assay, 48 hours exposure) was found to be 1.80E−05. For the same compound, in the assay with DU-145 (SRB assay, 48 hours exposure), the “TGI DU-145” value amounted to 3.89E−05. Also, the “TGI PANC-1” value in the assay on PANC-1 (SRB assay, 48 hours exposure) amounted to 3.83E−05. Moreover, the “TGI HT-29” value with HT-29 (SRB assay, 48 hours exposure) is on record as 3.89E−05. Further, the “TGI LOVO” value in the assay on LoVo (SRB assay, 48 hours exposure) was found to be 3.89E−05.

As for `COC(=O)C(C(=O)OC)c1nccc(-c2c3cccnc3n3c(N)nccc23)n1` [Compound 74], the GI50 in the assay on A-549 (setting [1]) is 5.35 µM; in the assay on HT-29 (setting [3]), 1.22 µM. In addition, the CC50 with A-549 (setting [2]) is 21.3 µM; in the assay with HT-29 (setting [4]), 25.5 µM. In addition, the “TGI A-549” value in the assay on A-549 (SRB assay, 48 hours exposure) is 1.07E−05. Further, in the assay with HT-29 (SRB assay, 48 hours exposure), the “TGI HT-29” value came out at 2.55E−05.

Take `COc1ccc(COc2nccc(-c3c4cccnc4n4c(N)nccc34)n2)cc1` [Compound 79]: the GI50 in the assay with A-549 (read-out: A-549 GI50, SRB assay, 48 hours exposure) came to 25.1 µM; in the assay on HT-29 (read-out: HT-29 GI50, SRB assay, 48 hours exposure), 25.1 µM. Besides, the CC50 in the assay with A-549 (read-out: A-549 LC50, SRB assay, 48 hours exposure) is 25.1 µM; with HT-29 (read-out: HT-29 LC50, SRB assay, 48 hours exposure), 25.1 µM. Further, the “A-549 TGI” value in the assay on A-549 (SRB assay, 48 hours exposure) is listed as 2.51E−05. Further, the “HT-29 TGI” value with HT-29 (SRB assay, 48 hours exposure) is given as 2.51E−05.

For the compound `Nc1nccc(-c2c3c(OCc4ccccc4)ccnc3n3c(N)nccc23)n1` [Compound 96], the GI50 in the assay on A-549 (setting [1]) is 12.3 µM; with HT-29 (setting [3]), 16.2 µM. Further, the CC50 with A-549 (setting [2]) and in the assay with HT-29 (setting [4]) was 26.1 µM each time. The “TGI A-549” value in the assay on A-549 (SRB assay, 48 hours exposure) worked out at 2.61E−05. Besides, the “TGI HT-29” value in the assay with HT-29 (SRB assay, 48 hours exposure) is given as 2.61E−05.

On to `CCOc1nccc(-c2c3c(OCc4ccccc4)ccnc3n3c(N)nccc23)n1` [Compound 103], for which the concentration for 50% growth inhibition (GI50) is 11.5 µM in the assay with A-549 (setting [1]) and 11.9 µM in the assay on HT-29 (setting [3]). Also, the CC50 in the assay with A-549 (setting [2]) and in the assay on HT-29 (setting [4]) was 24.2 µM in each case. The “TGI A-549” value in the assay on A-549 (SRB assay, 48 hours exposure) was determined as 2.42E−05. Besides, the “TGI HT-29” value with HT-29 (SRB assay, 48 hours exposure) amounted to 2.42E−05.

In the case of `Nc1nccc2c(-c3ccnc(OCc4ccccc4)n3)c3c(OCc4ccccc4)ccnc3n12` [Compound 104], the GI50 in the assay on A-549 (setting [1]) and with HT-29 (setting [3]) was 21.1 µM each time. The CC50 in the assay on A-549 (setting [2]) and in the assay on HT-29 (setting [4]) was 21.1 µM in each case. The “TGI A-549” value in the assay on A-549 (SRB assay, 48 hours exposure) is given as 2.11E−05. Also, the “TGI HT-29” value in the assay on HT-29 (SRB assay, 48 hours exposure) is 2.11E−05.
